Assay results: patent US20220056019A1, “FARNESOID X RECEPTOR AGONISTS AND USES THEREOF” (Metacrine, Inc., priority 2018, published 2022)

Molecular target: T1, hFXR (Homo sapiens, UniProt Q96RI1)
T1 construct: expressed in transfected cells; host or cells: CV-1 cells
T1 sequence (Q96RI1 1-486): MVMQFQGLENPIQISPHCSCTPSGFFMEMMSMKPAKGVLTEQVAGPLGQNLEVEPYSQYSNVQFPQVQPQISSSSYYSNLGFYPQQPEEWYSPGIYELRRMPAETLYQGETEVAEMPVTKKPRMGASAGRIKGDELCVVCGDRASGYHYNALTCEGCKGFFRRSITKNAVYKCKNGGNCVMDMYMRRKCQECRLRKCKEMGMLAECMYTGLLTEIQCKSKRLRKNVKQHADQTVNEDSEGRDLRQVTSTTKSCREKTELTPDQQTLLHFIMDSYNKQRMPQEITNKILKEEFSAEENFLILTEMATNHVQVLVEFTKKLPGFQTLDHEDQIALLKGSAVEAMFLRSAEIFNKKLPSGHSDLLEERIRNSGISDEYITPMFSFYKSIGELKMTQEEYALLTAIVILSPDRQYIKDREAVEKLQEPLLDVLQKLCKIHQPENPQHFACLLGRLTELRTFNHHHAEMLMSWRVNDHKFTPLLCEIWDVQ
T1 sequence (P19793 1-462 partner): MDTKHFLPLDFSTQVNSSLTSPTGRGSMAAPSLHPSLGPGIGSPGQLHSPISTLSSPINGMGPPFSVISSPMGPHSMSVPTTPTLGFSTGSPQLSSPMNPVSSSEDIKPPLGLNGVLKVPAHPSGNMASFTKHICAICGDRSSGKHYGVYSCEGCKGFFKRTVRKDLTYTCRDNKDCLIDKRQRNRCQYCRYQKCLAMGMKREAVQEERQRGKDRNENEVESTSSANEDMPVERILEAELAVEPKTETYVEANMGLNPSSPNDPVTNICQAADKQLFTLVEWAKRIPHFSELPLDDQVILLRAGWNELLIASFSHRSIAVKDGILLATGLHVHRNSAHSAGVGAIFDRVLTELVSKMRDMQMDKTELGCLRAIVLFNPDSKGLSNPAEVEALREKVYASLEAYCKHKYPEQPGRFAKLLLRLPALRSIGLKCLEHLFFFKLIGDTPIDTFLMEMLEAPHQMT
Experiment: In Vitro FXR Assay (TK): TK-ECRE-luc reporter in transfected CV-1 cells
Type: cell-based
Conditions: 18 hrs incubation, luminescence
In short: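 CV-1 cells transiently cotransfected with hFXR, hRXR, TK-ECRE-luc reporter and pCMX-YFP plasmids in charcoal-stripped serum medium. Serially diluted compounds added for 18 h at 37° C., then cells lysed and luciferase luminescence measured.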

| SMILES | EC50 |
| --- | --- |
| COc1ccc([C@H]2CC[C@H](CN(c3cc(-c4coc(C5CC5)n4)ccn3)C(=O)[C@H]3CC[C@H](OC(=O)NC4COC4)CC3)CC2)cc1C [Compound 2.53, trans-4-((4-(2-Cyclopropyloxazol-4-yl)pyridin-2-yl)(((trans)-4-(4-methoxy-3-methylphenyl)cyclohexyl)methyl)carbamoyl)cyclohexyl oxetan-3-ylcarbamate] | ≤ 50 nM |
| COc1ccc(C23CCC(CN(c4cncc(-c5cnn(C(C)C)c5)n4)C(=O)[C@H]4CC[C@H](OC(=O)N5CC(O)C5)CC4)(CC2)CC3)cc1C [Compound 25.28, 4-((6-(1-Isopropyl-1H-pyrazol-4-yl)pyrazin-2-yl)((4-(4-methoxy-3-methylphenyl)bicyclo[2.2.2]octan-1-yl)methyl)carbamoyl)cyclohexyl trans-3-hydroxyazetidine-1-carboxylate] | ≤ 50 nM |
| COc1c(F)cc(C23CCC(CN(c4cc(-c5cnn(C(C)C)c5)ccn4)C(=O)[C@H]4CC[C@H](OC(=O)N5CC(O)C5)CC4)(CC2)CC3)cc1F [Compound 26.06, 4-(((4-(3,5-Difluoro-4-methoxyphenyl)bicyclo[2.2.2]octan-1-yl)methyl)(4-(1-isopropyl-1H-pyrazol-4-yl)pyridin-2-yl)carbamoyl)cyclohexyl trans-3-hydroxyazetidine-1-carboxylate] | ≤ 50 nM |
| COc1ccc(C23CCC(CN(c4cc(-c5cnn(C(C)C)c5)ccn4)C(=O)[C@H]4CC[C@H](OC(=O)N5CC(CO)C5)CC4)(CC2)CC3)cc1C [Compound 4.09, 4-((4-(1-Isopropyl-1H-pyrazol-4-yl)pyridin-2-yl)((4-(4-methoxy-3-methylphenyl)bicyclo [2.2.2]octan-1-yl)methyl)carbamoyl)cyclohexyl 3-(hydroxymethyl) azetidine-trans-1-carboxylate] | ≤ 50 nM |
| COc1ccc(C23CCC(CN(c4cc(-c5cnc(C6CC6)s5)ccn4)C(=O)[C@H]4CC[C@H](OC(=O)N5CC(O)C5)CC4)(CC2)CC3)cc1C [Compound 4.01, 4-((4-(2-Cyclopropylthiazol-5-yl)pyridin-2-yl)((4-(4-methoxy-3-methylphenyl)bicyclo[2.2.2]octan-1-yl)methyl)carbamoyl) cyclohexyl 3-hydroxyazetidine-trans-1-carboxylate] | ≤ 50 nM |
| COc1ccc([C@H]2CC[C@H](CN(c3cccc(-c4cnn(C(C)C)c4)c3)C(=O)[C@H]3CC[C@H](CNC(=O)OCCO)CC3)CC2)cc1C [Compound 12.06, 2-Hydroxyethyl (((trans)-4-((3-(1-isopropyl-1H-pyrazol-4-yl)phenyl)(((trans)-4-(4-methoxy-3-methylphenyl)cyclohexyl)methyl)carbamoyl)cyclohexyl)methyl)car-bamate] | ≤ 50 nM |
| CCc1nc(-c2ccnc(N(CC34CCC(c5ccc(OC)c(C)c5)(CC3)CC4)C(=O)[C@H]3CC[C@H](OC(=O)N4CC(O)C4)CC3)c2)co1 [Compound 4.22, 4-((4-(2-Ethyloxazol-4-yl)pyridin-2-yl)((4-(4-methoxy-3-methylphenyl)bicyclo[2.2.2]octan-1-yl)methyl)carbamoyl) cyclohexyl 3-hydroxyazetidine-trans-1-carboxylate] | ≤ 50 nM |
| COc1ccc(C23CCC(CN(c4cc(-c5cnn(C(C)C)c5)ccn4)C(=O)[C@H]4CC[C@H](OC(=O)N5CC(C(C)(C)O)C5)CC4)(CC2)CC3)cc1C [Compound 4.42, 4-((4-(1-Isopropyl-1H-pyrazol-4-yl)pyridin-2-yl) ((4-(4-methoxy-3-methylphenyl)bicyclo [2.2.2]octan-1-yl)methyl)carbamoyl)cyclohexyl trans-3-(2-hydroxypropan-2-yl)azetidine-1-carboxylate] | ≤ 50 nM |
| COc1ccc([C@H]2CC[C@H](CN(c3cccc(-c4cnn(C(C)C)c4)c3)C(=O)[C@H]3CC[C@H](OC(=O)NCCCF)CC3)CC2)cc1C [Compound 5.04, trans-4-((3-(1-Isopropyl-1H-pyrazol-4-yl)phenyl)(((trans)-4-(4-methoxy-3-methylphenyl)cyclohexyl)methyl)carbamoyl)cyclohexyl (3-fluoropropyl)carbamate] | ≤ 50 nM |

Other lines, results leading:

| EC50 | SMILES |
| --- | --- |
| 50 to 1000 nM | COc1ccc(C23CCC(CN(c4cc(C5CCN(C(C)C)CC5)ccn4)C(=O)[C@H]4CC[C@H](OC(=O)N5CC(O)C5)CC4)(CC2)CC3)cc1C [Compound 23.17, 4-((4-(1-Isopropylpiperidin-4-yl)pyridin-2-yl)((4-(4-methoxy-3-methylphenyl)bicyclo[2.2.2]octan-1-yl)methyl)carbamoyl)cyclo-hexyl trans-3-hydroxyazetidine-1-carboxylate] |
| ≤ 50 nM | COc1ccc(C23CCC(CN(c4cc(-c5cnn(C(C)C)c5)ccn4)C(=O)[C@H]4CC[C@H](OC(=O)N5CC(O)C5)CC4)(CC2)CC3)cc1Cl [Compound 4.16, 4-(((4-(3-Chloro-4-methoxyphenyl)bicyclo [2.2.2]octan-1-yl)methyl) (4-(1-isopropyl-1H-pyrazol-4-yl)pyridin-2-yl)carbamoyl)cyclohexyl hydroxyazetidine-1-carboxylate] |
| ≤ 50 nM | COc1ccc(C23CCC(CN(c4cc(-c5cnn(C6(C)CCC6)c5)ccn4)C(=O)[C@H]4CC[C@H](OC(=O)N5CC(S(C)(=O)=O)C5)CC4)(CC2)CC3)cc1C [Compound 25.19, 4-(((4-(4-Methoxy-3-methylphenyl)bicyclo[2.2.2]octan-1-yl)methyl)(4-(1-(1-methylcyclobutyl)-1H-pyrazol-4-yl)pyridin-2-yl)carbamoyl)(trans-cyclohexyl) 3-(methylsulfonyl)azetidine-1-carboxylate] |
| ≤ 50 nM | CCOC1CN(C(=O)O[C@H]2CC[C@H](C(=O)N(CC34CCC(c5ccc(OC)c(C)c5)(CC3)CC4)c3cc(-c4cnn(C(C)C)c4)ccn3)CC2)C1 [Compound 4.48, 4-((4-(1-Isopropyl-1H-pyrazol-4-yl)pyridin-2-yl) ((4-(4-methoxy-3-methylphenyl)bicyclo [2.2.2]octan-1-yl)methyl)carbamoyl)(trans-cyclohexyl) 3-ethoxyazetidine-1-carboxylate] |
| ≤ 50 nM | COc1ccc(C23CCC(CN(c4cc(-c5cnn(C6(C)CCC6)c5)ncn4)C(=O)[C@H]4CC[C@H](OC(=O)N5CC(O)C5)CC4)(CC2)CC3)cc1C [Compound 25.26, 4-(((4-(4-Methoxy-3-methylphenyl)bicyclo[2.2.2]octan-1-yl)methyl)(6-(1-(1-methylcyclobutyl)-1H-pyrazol-4-yl)pyrimidin-4-yl)carbamoyl)cyclohexyl trans-3-hydroxyazetidine-1-carboxylate] |
| ≤ 50 nM | COc1ccc(C23CCC(CN(c4cc(-c5coc(C(C)C)n5)ccn4)C(=O)[C@H]4CC[C@H](OC(=O)NCCO)CC4)(CC2)CC3)cc1C [Compound 22, 4-((4-(2-Isopropyloxazol-4-yl)pyridin-2-yl)((4-(4-methoxy-3-methylphenyl)bicyclo[2.2.2]octan-1-yl)methyl)carbamoyl)cyclohexyl (2-hydroxyethyl)trans-carbamate] |
| ≤ 50 nM | COc1ccc([C@H]2CC[C@H](CN(c3cccc(-c4cnn(C(C)C)c4)c3)C(=O)[C@H]3CC[C@H](OC(=O)NCC(C)(C)O)CC3)CC2)cc1C [Compound 5.12, trans-4-((3-(1-Isopropyl-1H-pyrazol-4-yl)phenyl)((trans-4-(4-methoxy-3-methylphenyl)cyclohexyl)methyl)carbamoyl)cyclohexyl (2-hydroxy-2-methylpropyl)carbamate] |
| ≤ 50 nM | COc1ccc(C23CCC(CN(c4cc(-c5cnc(C6CC6)s5)ccn4)C(=O)[C@H]4CC[C@H](NC(=O)CO)CC4)(CC2)CC3)cc1C [Compound 9.08, (trans)-N-(4-(2-Cyclopropylthiazol-5-yl)pyridin-2-yl)-4-(2-hydroxyacetamido)-N-((4-(4-methoxy-3-methylphenyl)bicyclo[2.2.]octan-1-yl)methyl)cyclohexanecarboxamide] |
| ≤ 50 nM | COc1ccc([C@H]2CC[C@](F)(CN(c3cccc(-c4cnn(C(C)C)c4)c3)C(=O)[C@H]3CC[C@H](OC(=O)N4CC(O)C4)CC3)CC2)cc1C [Compound 25.01, 4-((((trans)-1-Fluoro-4-(4-methoxy-3-methylphenyl)cyclohexyl)methyl)(3-(1-isopropyl-1H-pyrazol-4-yl)phenyl)carbamoyl)(trans-cyclohexyl) 3-hydroxyazetidine-1-carboxylate] |
| ≤ 50 nM | COc1ccc(C23CCC(CN(c4nccc(-c5cnn(C6(C)CCC6)c5)n4)C(=O)[C@H]4CC[C@H](OC(=O)N5CC(O)C5)CC4)(CC2)CC3)cc1C [Compound 25.25, 4-(((4-(4-Methoxy-3-methylphenyl)bicyclo[2.2.2]octan-1-yl)methyl)(4-(1-(1-methylcyclobutyl)-1H-pyrazol-4-yl)pyrimidin-2-yl)carbamoyl)cyclohexyl trans-3-hydroxyazetidine-1-carboxylate] |
